Laboratory results as given in PubChem BioAssay (NCI).
Values joined by “and” are separate entries in the source; they are usually repeats but may differ in a detail not shown here. Identical values can stand only once.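 Step 1: Grow cells in 96-well plates. Step 2: Expose to compound for 48 hours at 5 concentrations. Step 3: Interpolate endpoints linearly; if unreached, use highest concentration. GI50 marks 50% less growth. At the TGI there is no net growth.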

Columns and labels:
Test in all cases: growth of human tumour cells (NCI), 48 h
A498 renal = system: A498 renal
A549 NSCLC = system: A549 NSCLC
COLO 205 colon = system: COLO 205 colon
HS 578T breast = system: HS 578T breast
KM12 colon = system: KM12 colon
MALME-3M melanoma = system: MALME-3M melanoma
OVCAR-4 ovarian = system: OVCAR-4 ovarian
SF-539 CNS = system: SF-539 CNS
SK-MEL-2 melanoma = system: SK-MEL-2 melanoma
SR leukemia = system: SR leukemia

## COc1ccc(S(=O)(=O)N2CC(C)(C)CN(S(=O)(=O)c3ccc(OC)cc3)C2C(=O)NO)cc1
A498 renal
  GI50: > 20 µM
  TGI: > 20 µM
A549 NSCLC
  GI50: > 20 µM
  TGI: > 20 µM
COLO 205 colon
  GI50: > 20 µM
  TGI: > 20 µM
HS 578T breast
  GI50: > 6.77 µM
  TGI: > 20 µM
KM12 colon
  GI50: > 20 µM
  TGI: > 20 µM
MALME-3M melanoma
  GI50: 5.93 µM
  TGI: > 20 µM
OVCAR-4 ovarian
  GI50: > 20 µM
  TGI: > 20 µM
SF-539 CNS
  GI50: > 20 µM
  TGI: > 20 µM
SK-MEL-2 melanoma
  GI50: > 20 µM
  TGI: > 20 µM
SR leukemia
  GI50: 13.6 µM
  TGI: > 20 µM

## COc1ccc(C(=O)/C=C/c2ccc(C)cc2)cc1OC
A498 renal
  GI50: 12.5 µM
  TGI: 25 µM
A549 NSCLC
  GI50: 11.2 µM
  TGI: 26 µM
COLO 205 colon
  GI50: 10.1 µM
  TGI: 21.6 µM
HS 578T breast
  GI50: 12.5 µM
  TGI: 30.3 µM
KM12 colon
  GI50: 5.68 µM
  TGI: 19 µM
MALME-3M melanoma
  GI50: 15.9 µM
  TGI: 36 µM
OVCAR-4 ovarian
  GI50: 12.2 µM
  TGI: 24.7 µM
SF-539 CNS
  GI50: 5.32 µM
  TGI: 18.2 µM
SK-MEL-2 melanoma
  GI50: 15.9 µM
  TGI: 40.1 µM
SR leukemia
  GI50: 2.4 µM
  TGI: 6.83 µM

## CC[N+](CC)=c1sc2c(s1)C(c1ccc(Cl)cc1)Oc1ccc(Cl)cc1-2 (stereo not given)
A498 renal
  GI50: 3.37 µM
  TGI: 10.2 µM
A549 NSCLC
  GI50: 1.86 µM
  TGI: 6.9 µM
COLO 205 colon
  GI50: 1.65 µM
  TGI: 3.77 µM
HS 578T breast
  GI50: 1.43 µM
  TGI: 5.59 µM
KM12 colon
  GI50: 0.456 µM
  TGI: 1.91 µM
MALME-3M melanoma
  GI50: 1.44 µM
  TGI: 3.88 µM
OVCAR-4 ovarian
  GI50: 3.03 µM
  TGI: 12.7 µM
SF-539 CNS
  GI50: 1.46 µM
  TGI: 2.97 µM
SK-MEL-2 melanoma
  GI50: 1.03 µM
  TGI: 2.81 µM
SR leukemia
  GI50: 2.68 µM
  TGI: 7.15 µM

## C#CCOc1cccc(-c2ncnc3cc(NC(=O)CCl)ccc23)c1
A498 renal
  GI50: 3.83 µM
  TGI: 15.9 µM
A549 NSCLC
  GI50: 0.451 µM
  TGI: 3.96 µM
COLO 205 colon
  GI50: 0.0976 µM
  TGI: 2.77 µM
HS 578T breast
  GI50: 1.92 µM
  TGI: 14.5 µM
KM12 colon
  GI50: 0.622 µM
  TGI: 3.2 µM
MALME-3M melanoma
  GI50: 1.28 µM
  TGI: 3.59 µM
OVCAR-4 ovarian
  GI50: 1.2 µM
  TGI: 2.59 µM
SF-539 CNS
  GI50: 1.31 µM
  TGI: 2.77 µM
SK-MEL-2 melanoma
  GI50: 1.26 µM
  TGI: 3.78 µM
SR leukemia
  GI50: 0.0363 µM
  TGI: > 100 µM

## COC(=O)CCc1c[nH]c2ccc(N(CCCl)CCCl)cc12
A498 renal
  GI50: 3.4 µM
  TGI: 18.2 µM
A549 NSCLC
  GI50: 1.51 µM
  TGI: > 100 µM
COLO 205 colon
  GI50: 3.5 µM
  TGI: 19.4 µM
HS 578T breast
  GI50: 15.1 µM
  TGI: 50.1 µM
KM12 colon
  GI50: 10.6 µM
  TGI: 36.1 µM
MALME-3M melanoma
  GI50: 5.95 µM
  TGI: 30.1 µM
OVCAR-4 ovarian
  GI50: 7.71 µM
  TGI: 52.2 µM
SF-539 CNS
  GI50: 0.486 µM
  TGI: 4.69 µM
SK-MEL-2 melanoma
  GI50: 9.71 µM
  TGI: 59 µM
SR leukemia
  GI50: 0.416 µM
  TGI: > 100 µM

## Nc1ccccc1C(=O)CC1OC(=O)c2ccccc21 (stereo not given)
A498 renal
  TGI: > 100 µM
A549 NSCLC
  TGI: > 100 µM
HS 578T breast
  TGI: > 100 µM
KM12 colon
  TGI: > 100 µM
MALME-3M melanoma
  TGI: > 100 µM
OVCAR-4 ovarian
  TGI: > 100 µM
SF-539 CNS
  TGI: > 100 µM
SK-MEL-2 melanoma
  TGI: 88 µM
SR leukemia
  TGI: > 100 µM

## CCc1cccc(C)c1NC(=O)c1sc2nc3c(cc2c1N)CCCCC3
A498 renal
  GI50: 2.2 µM
  TGI: 23.3 µM
A549 NSCLC
  GI50: 4.14 µM
  TGI: > 100 µM
COLO 205 colon
  GI50: 2.98 µM
  TGI: 15.2 µM
HS 578T breast
  GI50: 4.87 µM
  TGI: > 100 µM
KM12 colon
  GI50: 3.46 µM
  TGI: > 100 µM
MALME-3M melanoma
  GI50: 9.11 µM
  TGI: 84.4 µM
OVCAR-4 ovarian
  GI50: 8.37 µM
  TGI: > 100 µM
SF-539 CNS
  GI50: 2.29 µM
  TGI: 8.21 µM
SK-MEL-2 melanoma
  GI50: 3.27 µM
  TGI: > 100 µM
SR leukemia
  GI50: 2.27 µM
  TGI: 54 µM

## COc1cccc(-c2cc(=O)c3cc(OC)ccc3[nH]2)c1
A498 renal
  TGI: 0.111 µM
A549 NSCLC
  GI50: 0.305 µM
  TGI: > 100 µM
COLO 205 colon
  GI50: 0.0741 µM
  TGI: 0.48 µM and 0.411 µM
HS 578T breast
  TGI: 0.885 µM
KM12 colon
  GI50: 0.0671 µM
  TGI: > 100 µM
MALME-3M melanoma
  GI50: 0.0479 µM
  TGI: > 100 µM
OVCAR-4 ovarian
  TGI: > 100 µM
SF-539 CNS
  TGI: 0.451 µM
SK-MEL-2 melanoma
  GI50: 0.0774 µM
  TGI: 7.11 µM and 20.2 µM
SR leukemia
  TGI: 0.664 µM

## FC(F)c1nc2ccccc2n1-c1nc(N2CCOCC2)nc(N2CCOCC2)n1
A498 renal
  GI50: 0.0303 µM and 0.0216 µM
  TGI: 0.169 µM and 0.138 µM
A549 NSCLC
  GI50: 0.518 µM and 0.584 µM
  TGI: > 100 µM
COLO 205 colon
  GI50: 0.277 µM and 0.507 µM
HS 578T breast
  GI50: 0.143 µM and 0.0684 µM
  TGI: 0.995 µM and 0.773 µM
KM12 colon
  GI50: 0.739 µM and 0.969 µM
  TGI: > 100 µM
MALME-3M melanoma
  GI50: 0.178 µM and 0.16 µM
  TGI: 1.65 µM and 0.919 µM
OVCAR-4 ovarian
  GI50: 0.797 µM and 0.475 µM
  TGI: 6.87 µM and 5.39 µM
SF-539 CNS
  GI50: 0.382 µM and 0.457 µM
  TGI: 2.29 µM and 3.52 µM
SK-MEL-2 melanoma
  GI50: 0.519 µM and 1.08 µM
  TGI: 2.79 µM and 14.3 µM
SR leukemia
  GI50: 0.686 µM and 0.578 µM
  TGI: > 100 µM

## O=C(CP(=O)(O)O)NC(CC(=O)OCc1ccccc1)C(=O)OCc1ccccc1 (stereo not given)
A498 renal
  TGI: > 100 µM
A549 NSCLC
  TGI: > 100 µM
COLO 205 colon
  TGI: > 100 µM
HS 578T breast
  TGI: > 100 µM
MALME-3M melanoma
  TGI: > 100 µM
OVCAR-4 ovarian
  TGI: > 100 µM
SF-539 CNS
  TGI: > 100 µM
SK-MEL-2 melanoma
  TGI: > 100 µM
SR leukemia
  TGI: > 100 µM

## Nc1ccc(C2=NN(c3ccccc3)C(c3ccc(Cl)cc3)C2)cc1 (stereo not given)
A498 renal
  GI50: 1.9 µM
  TGI: 13 µM
A549 NSCLC
  GI50: 2.45 µM
  TGI: 7.98 µM
COLO 205 colon
  GI50: 2.15 µM
  TGI: 4.54 µM
HS 578T breast
  GI50: 5.7 µM
  TGI: 50.5 µM
KM12 colon
  GI50: 1.68 µM
  TGI: 3.11 µM
MALME-3M melanoma
  GI50: 16.2 µM
  TGI: 43.8 µM
OVCAR-4 ovarian
  GI50: 4.84 µM
  TGI: 45.5 µM
SF-539 CNS
  GI50: 1.93 µM
  TGI: 4.21 µM
SR leukemia
  GI50: 1.71 µM
  TGI: 4.27 µM

## COc1ccc(-c2cn[nH]c2-c2cc(OC)c3c(c2)OCO3)cc1
A498 renal
  GI50: 0.0632 µM
  TGI: 1.13 µM
A549 NSCLC
  GI50: 0.3 µM
  TGI: 20.1 µM
COLO 205 colon
  GI50: 0.164 µM
  TGI: 0.768 µM
HS 578T breast
  GI50: 0.311 µM
  TGI: 26.2 µM
KM12 colon
  GI50: 0.0929 µM
  TGI: 11.1 µM
OVCAR-4 ovarian
  GI50: 2.15 µM
  TGI: 62.9 µM
SF-539 CNS
  GI50: 0.193 µM
  TGI: 0.539 µM
SK-MEL-2 melanoma
  GI50: 0.265 µM
  TGI: 17.8 µM
SR leukemia
  GI50: 0.0631 µM
  TGI: 16.8 µM

## COC(=O)[C@@H](C)C[C@H](Cc1ccccc1)NC(=O)c1csc(CC[C@H](C(C)C)N(C)C(=O)[C@@H](NC(=O)[C@H]2CCCCN2C)C(C)C)n1
A498 renal
  GI50: 0.19 µM
  TGI: 1.56 µM
A549 NSCLC
  GI50: 1.27 µM
  TGI: > 33.3 µM
COLO 205 colon
  GI50: 0.19 µM
  TGI: 1.53 µM
HS 578T breast
  GI50: 0.761 µM
  TGI: 15.8 µM
KM12 colon
  GI50: 0.324 µM
  TGI: > 33.3 µM
OVCAR-4 ovarian
  GI50: 0.991 µM
  TGI: > 33.3 µM
SF-539 CNS
  GI50: 0.444 µM
  TGI: 1.91 µM
SK-MEL-2 melanoma
  GI50: 0.149 µM
  TGI: > 33.3 µM
SR leukemia
  GI50: 0.0686 µM
  TGI: > 33.3 µM

## C=C(C)C(=O)O[C@H]1C[C@@]23O[C@@H]2CCC(=C[C@H]2OC(=O)C(=C)[C@H]12)COC3O (stereo not given in full)
A498 renal
  TGI: > 100 µM
A549 NSCLC
  TGI: > 100 µM
COLO 205 colon
  TGI: 56.8 µM
HS 578T breast
  TGI: > 100 µM
KM12 colon
  TGI: > 100 µM
OVCAR-4 ovarian
  TGI: > 100 µM
SF-539 CNS
  TGI: > 100 µM
SK-MEL-2 melanoma
  TGI: > 100 µM
SR leukemia
  TGI: 95.1 µM
